Experimental data taken from a compilation of properties of binary mixtures (doi:10.1080/00319104.2019.1566461).

Test: xn = mol fraction of the nth substance listed
Details: 101.3 kPa

CCOS(=O)(=O)[O-].CC[n+]1ccn(C)c1 + CCCCC(=O)O
x2 = 0
Details	speed of sound [m/s]
288.15 K	1696.4
293.15 K	1686.8
298.15 K	1671.4
303.15 K	1661.9
308.15 K	1649.6
313.15 K	1637.5

CC(C)C(=O)O + CCOS(=O)(=O)[O-].CC[n+]1ccn(C)c1
speed of sound [m/s]
Details	288.15 K	293.15 K	298.15 K	303.15 K	308.15 K	313.15 K
x1 = 0.1122	1665.5	1652.8	1640	1627.4	1614.9	1602.6
x1 = 0.2295	–	–	1606.3	1593.5	1580.8	1568.2
x1 = 0.3297	1592.5	–	1566.2	1553.2	1540.2	1527.4
x1 = 0.4305	1554.5	1541.2	–	1514.4	1501.1	1488.1
x1 = 0.5464	1501.1	1487.4	–	1459.8	1446.2	1432.7
x1 = 0.6412	–	1439.4	1425.1	1411	1396.9	1383.1
x1 = 0.728	1398.5	1383.9	1369.1	1354.4	1339.9	1325.5
x1 = 0.8127	1331.5	–	–	1284.8	1269	1253.8
x1 = 0.9073	1256.7	1240	1222.8	1205.6	1188.9	1172.5
x1 = 0.9336	1233.1	1213.2	–	–	1162.5	–
x1 = 0.9576	1200.2	–	1158.9	1141	1122.2	1100.7
x1 = 1	1159	1140.3	1121.2	–	1083.6	1065.1

CCOS(=O)(=O)[O-].CC[n+]1ccn(C)c1 + CC(C)C(=O)O
x2 = 0
Details	speed of sound [m/s]
293.15 K	1686.8
298.15 K	1671.4
303.15 K	1661.9
308.15 K	1649.6

CCCCC(=O)O + CCOS(=O)(=O)[O-].CC[n+]1ccn(C)c1
speed of sound [m/s]
Details	288.15 K	293.15 K	298.15 K	303.15 K	308.15 K	313.15 K
x1 = 0.0974	–	1655.2	1642.4	1629.8	1617.2	1604.9
x1 = 0.1949	1636.9	–	1611	1598.1	1585.4	1572.9
x1 = 0.2975	1598.8	–	1572.4	–	1546.4	–
x1 = 0.3947	–	–	1538.1	1524.8	–	1498.6
x1 = 0.495	1525	1511.5	1497.7	1484.1	1470.7	1457.3
x1 = 0.595	–	–	1455.3	1441.2	–	1413.8
x1 = 0.6941	1435.7	1421.3	1406.7	1392.3	1377.9	1363.7
x1 = 0.7905	1383	1367.9	1352.6	1337.5	1322.4	1307.5
x1 = 0.8965	1315	1298.6	1282	1265.6	1249.4	1233.2
x1 = 0.926	1295.1	1278.3	1261.3	1244.4	1227.7	1211.1
x1 = 0.9529	1277.5	–	1242.8	–	1208.3	1191.3
x1 = 1	1253.7	1235.8	–	1199.5	–	1163.9
